Data on 5 compounds can be found in ChEMBL document CHEMBL6134870 (J Med Chem, 2025).

For series [1] the following is noted: human, serum, 2 h.
Series [2] is described as follows: Cytotoxicity against BoNT/A treated human iPSC cells assessed as cell rounding at 100 uM incubated for 7.5 hrs by Western blot analysis. Format: toxicity, cell-based. On the technique in general: A western blot detects proteins with antibodies after separation by electrophoresis.
Series [3] deals with Matrix metalloproteinase-14 (Homo sapiens, UniProt P50281). Description: Inhibition of MMP-14 (unknown origin) at 25 uM. In kind it is toxicity.
The target of series [4] is T1, Matrix metalloproteinase-19 (Homo sapiens, UniProt Q99542).
T1 sequence (Q99542 whole entry): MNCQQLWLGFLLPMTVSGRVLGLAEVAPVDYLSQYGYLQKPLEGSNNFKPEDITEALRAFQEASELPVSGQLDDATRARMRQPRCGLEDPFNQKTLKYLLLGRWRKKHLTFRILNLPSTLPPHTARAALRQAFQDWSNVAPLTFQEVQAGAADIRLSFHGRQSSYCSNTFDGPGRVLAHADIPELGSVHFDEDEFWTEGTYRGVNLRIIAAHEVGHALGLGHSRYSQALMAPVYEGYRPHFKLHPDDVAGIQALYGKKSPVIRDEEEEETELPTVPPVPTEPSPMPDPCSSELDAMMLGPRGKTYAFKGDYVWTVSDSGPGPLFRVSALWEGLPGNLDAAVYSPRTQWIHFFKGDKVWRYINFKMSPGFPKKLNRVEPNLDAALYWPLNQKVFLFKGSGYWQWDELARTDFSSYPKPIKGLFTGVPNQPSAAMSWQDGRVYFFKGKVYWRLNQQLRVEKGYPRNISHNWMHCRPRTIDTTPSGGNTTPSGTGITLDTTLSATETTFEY
Description: Inhibition of MMP-19 (unknown origin) at 25 uM. Format: toxicity.

In another series the test system is HEK293. The experiment in a line: Cytotoxicity against HEK293 cells assessed as reduction in cell viability at 2 to 128 uM incubated for 24 hrs by MTS assay. Conditions: human, hek293, 24 h, dose 2-128 µM; call rule not given here. In kind it is toxicity, cell-based. On the technique in general: Tetrazolium dyes change colour on reduction, which living cells bring about.

In series [1], `C=C=CC(=O)NCCCc1ccn2c(=O)cc(CNCc3ccc(-c4ccccc4)cc3)nc2c1O` registered a t1/2 of 6.4 h.
Regarding `FC(F)(F)c1ccc(-c2ccc3c(c2)CC(=S)N3)c(C2CC2)c1`, the Activity result in series [2] is “Toxic”.
In the case of `FC(F)(F)c1ccc(-c2cc3c(cc2Cl)NC(=S)C3)c(C(F)(F)F)c1`, the result in series [3] and in series [4] was Active.
As to `FC(F)(F)c1ccc(-c2ccc3c(c2)CC(=S)N3)c(C(F)(F)F)c1`, the results for the Activity entry (in the series with HEK293; in series [2]) were “Non-toxic” and “Toxic”, respectively.
The compound `Cn1c(SC(=O)C(C)(C)C)cc2cc(C(=O)Nc3ccccc3)ccc21` displayed a t1/2 in series [1] of 1.2 h.
